# Laboratory results taken from patent publication US20250304537A1 (Repare Therapeutics Inc., priority 2022, published 2025).
# Molecular target: recombinant human Myt1 (full length PKMYT1) (Homo sapiens (Human), UniProt Q99640)
# Assay: Recombinant human Myt1 kinase assay (ADP-Glo)
# Assay type: biochemical
# Details: 10 μM ATP
# Procedure: Detection of Myt1 kinase activity utilized a recombinant human Myt1 kinase assay measuring the hydrolysis of ATP using a commercially available ADP-Glo Assay (ADP-Glo™ Kinase Assay from Promega, 10 000 assays, #V9102). Briefly, 5 μL recombinant human Myt1 (full length PKMYT1 recombinant human protein expressed in insect cells from Thermo Fisher #A33387; ˜80% purity) was prepared in reaction buffer (70 mM HEPES, 3 mM MgCl2, 3 mM MnCl2, 50 μg/ml PEG 20000, 3 μM Na-orthovanadate, 1.2 mM DTT) and added to 384 well white polystyrene, flat bottom well, non-treated, microplate (Corning #3572). After this, 5 μL of compounds (diluted in reaction buffer to 0.5% DMSO) was added to the microplate and the plate was spun briefly and incubated at 22° C. for 15 minutes. Ultra-Pure Adenosine Triphosphate (ATP) solution (ADP-Glo kit from Promega) was diluted in reaction buffer and 5 μL was added to the microplate, spun down briefly and incubated for 60 minutes at 30° C. The final Myt1 enzyme concentration was 18 nM and the final ATP concentration was 10 μM. After the 60-minute incubation, 15 μL of ADP-Glo reagent was added and the plate was spun briefly and sealed and incubated in the dark for 40 minutes at 22° C. Following this, 30 μL of kinase detection reagent was added per well and the plate was spun briefly, sealed and incubated for 45-60 minutes at 22° C. in the dark. Luminescence was read using the Envision (250 ms integration). The IC50 and the % max inhibition were calculated for each inhibitor compound tested.
# Sequence of recombinant human Myt1 (full length PKMYT1) (Q99640 whole entry): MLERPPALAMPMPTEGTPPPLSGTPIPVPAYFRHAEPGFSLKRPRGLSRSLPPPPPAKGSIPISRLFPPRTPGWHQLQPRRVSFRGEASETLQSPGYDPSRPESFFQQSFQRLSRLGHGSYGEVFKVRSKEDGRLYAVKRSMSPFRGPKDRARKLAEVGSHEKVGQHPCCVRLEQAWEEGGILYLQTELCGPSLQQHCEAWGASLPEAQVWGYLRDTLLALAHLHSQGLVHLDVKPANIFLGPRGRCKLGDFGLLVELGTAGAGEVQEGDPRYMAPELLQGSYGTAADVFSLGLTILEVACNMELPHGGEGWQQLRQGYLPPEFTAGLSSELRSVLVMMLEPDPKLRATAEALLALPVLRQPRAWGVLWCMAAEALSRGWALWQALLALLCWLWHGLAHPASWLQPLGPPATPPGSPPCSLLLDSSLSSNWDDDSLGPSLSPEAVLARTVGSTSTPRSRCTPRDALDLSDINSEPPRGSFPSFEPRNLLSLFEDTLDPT
row,SMILES,IC50 [nM]
1,Cc1ccc2[nH]ncc2c1-c1nc(-c2cc(F)c(F)cc2NC2CN(C(=O)OC(C)(C)C)C2)nc(C(N)=O)c1N [Compound 479],> 2000
2,NC(=O)c1nc(-c2cccnc2)cc(-c2c(C(F)(F)F)ccc3[nH]ncc23)c1N [Compound 325],> 2000
3,Cc1ccc2[nH]ncc2c1-c1nc(-c2cccc(CO)c2)nc(C(N)=O)c1N [Compound 305],81
4,COCCOc1cccc(-c2nc(C(N)=O)c(N)c(-c3c(C)ccc4[nH]ncc34)n2)c1 [Compound 286],41
5,Cc1ccc2[nH]ncc2c1-c1nc(-c2cccc(Cl)c2)nc(C(N)=O)c1N [Compound 111],44
6,"Cc1ccc(O)cc1-c1cc(C(N)=O)nc2ccccc12 [Compound 74, 4-(5-hydroxy-2-methylphenyl)quinoline-2-carboxamide]",2880
7,Cc1ccc(O)cc1-c1nc(-c2ccc(C#N)cc2)nc(C(N)=O)c1N [Compound 23],51
8,Cc1ccc2[nH]ncc2c1-c1nc(-c2ccc(OC3CCOCC3)c(C#N)c2)nc(C(N)=O)c1N [Compound 118],309
9,Cc1ccc2[nH]ncc2c1-c1nc(-c2cccc(CC#N)c2)nc(C(N)=O)c1N [Compound 281],8
10,Cc1ccc(O)cc1-c1nc(-c2cc(F)cc(C(F)(F)F)c2)nc(C(N)=O)c1N [Compound 32],175
11,Cc1cc(-c2nc(C(N)=O)c(N)c(-c3c(C)ccc4[nH]ncc34)n2)cc(C(F)(F)F)c1 [Compound 144],130
12,Cc1ccc2[nH]ncc2c1-c1nc(-c2cccnc2)nc(C(N)=O)c1N [Compound 99],59
13,CCC(COc1cccc(-c2cc(-c3c(C)ccc4[nH]ncc34)cc(C(N)=O)n2)n1)OC (stereo not shown) [Compound 498],93
14,COCC(=O)c1ccccc1-c1nc(C(N)=O)c(N)c(-c2c(C)ccc3[nH]ncc23)n1 [Compound 793],266
15,Cc1ccc2[nH]ncc2c1-c1nc(-c2cccc(-n3cccn3)c2)nc(C(N)=O)c1N [Compound 282],13
16,COCCOc1ccc(-c2nc(C(N)=O)c(N)c(-c3c(C)ccc4[nH]ncc34)n2)cc1 [Compound 124],25
17,Cc1ccc2n[nH]cc2c1-c1cc(-c2cccc(OC[C@@H](N)c3ccccc3)n2)nc(C(N)=O)c1N [Compound 277],162
18,Cc1n[nH]c2cccc(-c3nc(-c4ccccc4)nc(C(N)=O)c3N)c12 [Compound 116],> 5000
19,Cc1ccc(O)cc1-c1nc(-c2ccn(C)n2)nc(C(N)=O)c1N [Compound 35],167
20,Cc1ccc(O)cc1-c1nc(-c2cccc(C(N)=O)c2)nc(C(N)=O)c1N [Compound 8],25
21,Cc1ccc2[nH]ncc2c1-c1nc(-c2ccnc(C(F)(F)F)c2)nc(C(N)=O)c1N [Compound 153],27
22,Cc1ccc2[nH]ncc2c1-c1nc(-c2cccc(C(=O)O)c2)nc(C(N)=O)c1N [Compound 150],1110
23,Cc1ccc(O)cc1-c1nc(-c2cc(F)cc(F)c2)nc(C(N)=O)c1N [Compound 22],18
24,Cc1ccc2[nH]ncc2c1-c1nc(-c2ccc(Oc3ccccc3)cc2)nc(C(N)=O)c1N [Compound 113],1110
25,CC(=O)c1ccc(-c2nc(C(N)=O)c(N)c(-c3c(C)ccc4[nH]ncc34)n2)cc1 [Compound 128],57
26,CCS(=O)(=O)c1ccccc1-c1nc(C(N)=O)c(N)c(-c2c(C)ccc3[nH]ncc23)n1 [Compound 800],1010
27,Cc1ccc2[nH]ncc2c1-c1nc(-c2cccc(CN(C)C)c2)nc(C(N)=O)c1N [Compound 291],25
28,Cc1ccc(O)cc1-c1nc(-c2ccc(N)nc2)nc(C(N)=O)c1N [Compound 33],52

# The next lines start with the values.
row,IC50 [nM],SMILES
1,4,"CO[C@@H](COc1cccc(-c2cc(-c3c(C)ccc4[nH]ncc34)c(N)c(C(N)=O)n2)n1)C1CC1 (atropisomer, axis not shown) [Compound 363]"
2,869,"Cc1ccc2[nH]ncc2c1-c1cc(-c2ccnc(N[C@H](CO)Cc3ccccc3)n2)nc(C(N)=O)c1N (atropisomer, axis not shown) [Compound 370]"
3,859,"Cc1ccc2[nH]ncc2c1-c1cc(-c2ccnc(OCCN3CCCC3)n2)nc(C(N)=O)c1N (atropisomer, axis not shown) [Compound 233]"
4,16,Cc1ccc2[nH]ncc2c1-c1cc(-c2ccnc(NCC3(O)CC3)n2)nc(C(N)=O)c1N [Compound 341]
5,141,Cc1ccc2[nH]ncc2c1-c1cc(-c2cccc(N[C@@H](CO)c3ccccc3)n2)nc(C(N)=O)c1N [Compound 275]
6,78,Cc1ccc2[nH]ncc2c1-c1cc(-c2cccc(N3CCSCC3)n2)nc(C(N)=O)c1N [Compound 187]
7,364,Cc1ccc2[nH]ncc2c1-c1cc(-c2cccc(OCC(F)(F)F)c2)nc(C(N)=O)c1N [Compound 175]
8,12,Cc1ccc2[nH]ncc2c1-c1cc(-c2ccnc(OCCc3cccnc3)n2)nc(C(N)=O)c1N [Compound 272]
9,4,Cc1ccc2[nH]ncc2c1-c1cc(-c2ccnc(N[C@H]3CC[C@H](O)CC3)n2)nc(C(N)=O)c1N [Compound 369]
10,13,Cc1ccc2[nH]ncc2c1-c1cc(-c2ccnc(OCC3CCC(=O)N3)n2)nc(C(N)=O)c1N (stereo not shown) [Compound 317]
11,161,Cc1ccc2[nH]ncc2c1-c1cc(-c2csc(C(C)(C)O)n2)nc(C(N)=O)c1N [Compound 225]
12,7,Cc1ccc2[nH]ncc2c1-c1cc(-c2cccc(OCC(N)C(F)(F)F)n2)nc(C(N)=O)c1N (stereo not shown) [Compound 355]
13,2,"Cc1ccc2[nH]ncc2c1-c1cc(-c2ccnc(N[C@@H](CO)Cc3ccccc3)n2)nc(C(N)=O)c1N (atropisomer, axis not shown) [Compound 383]"
14,25,Cc1ccc2[nH]ncc2c1-c1cc(-c2cccc(OCCN3CCN(C)CC3)n2)nc(C(N)=O)c1N [Compound 307]
15,11,"Cc1ccnc(-c2cc(-c3c(C)ccc4[nH]ncc34)c(N)c(C(N)=O)n2)c1 (atropisomer, axis not shown) [Compound 280]"
16,20,Cc1ccc2[nH]ncc2c1-c1cc(-c2ccnc(NCCCO)n2)nc(C(N)=O)c1N [Compound 343]
17,770,Cc1ccc2[nH]ncc2c1-c1cc(-c2ccnc(OC3COC3)n2)nc(C(N)=O)c1N [Compound 176]
18,65,Cc1ccc2[nH]ncc2c1-c1cc(-c2ccnc(OCc3nc4ccccc4n3C)n2)nc(C(N)=O)c1N [Compound 336]
19,20,Cc1nc(COc2nccc(-c3cc(-c4c(C)ccc5[nH]ncc45)c(N)c(C(N)=O)n3)n2)co1 [Compound 316]
20,120,Cc1ccc2[nH]ncc2c1-c1nc(-c2ccc(OC3CC3)cc2)nc(C(N)=O)c1N [Compound 127]
21,191,Cc1ccc2[nH]ncc2c1-c1cc(-c2ccnc(OC3CN(C(=O)OC(C)(C)C)C3)n2)nc(C(N)=O)c1N [Compound 193]
22,14,Cc1ccc2[nH]ncc2c1-c1cc(-c2ccnc(OCCn3cccn3)n2)nc(C(N)=O)c1N [Compound 329]
23,18,Cc1ccc2[nH]ncc2c1-c1cc(-c2ccnc(N3CC[C@@H](O)C3)n2)nc(C(N)=O)c1N [Compound 347]
24,4,"Cc1ccc2[nH]ncc2c1-c1cc(-c2ccnc(N[C@@H]3c4ccccc4C[C@@H]3O)n2)nc(C(N)=O)c1N (atropisomer, axis not shown) [Compound 384]"
25,20,Cc1ccc2[nH]ncc2c1-c1cc(-c2ccnc(N3CCCC3CO)n2)nc(C(N)=O)c1N (stereo not shown) [Compound 373]
26,15,"Cc1ccc2[nH]ncc2c1-c1cc(-c2ccnc(N[C@H]3c4ccccc4C[C@H]3O)n2)nc(C(N)=O)c1N (atropisomer, axis not shown) [Compound 376]"

# Tested on: PKMYT1 (CDK1 pThr14) in FUOV1 cells
# Assay: PKMYT1 cell-based activity assay, CDK1 pThr14 AlphaLISA in FUOV1 cells
# Details: 2 h, 2 h compound incubation, read-out: FUOV-1 CDK1 pThr14 IC50
# Method in brief: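 FUOV1 cells were treated with PKMYT1 inhibitor for 2 h at 37 °C, then lysed. CDK1 pThr14 was measured by AlphaLISA, pairing an anti-pThr14 antibody with an anti-total CDK1 antibody (5 nM each). Signal read at 680/615 nm and used to derive IC50.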
row,IC50 [nM],SMILES
1,> 10000,Cc1ccc2[nH]ncc2c1-c1nc(-c2cccnc2NC[C@H]2CCO2)nc(C(N)=O)c1N [Compound 649]
2,18,COc1ccc(-c2nc(C(N)=O)c(N)c(-c3c(C)ccc4[nH]ncc34)n2)c(Nc2ncccc2C)n1 [Compound 709]
3,702,Cc1ccc2[nH]ncc2c1-c1nc(-c2ccc(F)cc2Nc2nccc(N3CCOCC3)n2)nc(C(N)=O)c1N [Compound 577]
4,30,Cc1ccc2[nH]ncc2c1-c1nc(-c2ccc(F)cc2Nc2ccccn2)nc(C(N)=O)c1N [Compound 516]
5,451,Cc1cc(F)c2[nH]ncc2c1-c1nc(-c2cc(F)ccc2Nc2ncc(F)cn2)nc(C(N)=O)c1N [Compound 677]

# Same assay, conditions: 2 h, 2 hours with compound, read-out: FUOV-1 CDK1 pThr14 IC50
row,IC50 [nM],SMILES
1,40,[2H]C([2H])([2H])c1ccc(-c2nc(C(N)=O)c(N)c(-c3c(C([2H])([2H])[2H])ccc4[nH]ncc34)n2)c(Nc2ncccn2)n1 [Compound 960]
2,75,Cc1ccc2[nH]ncc2c1-c1nc(-c2ccc(F)cc2NC2CCOCC2)nc(C(N)=O)c1N [Compound 857]
